In patent US10906890B2, “Triazole phenyl compounds as agonists of the APJ receptor” (AMGEN INC., priority 2016, dated 2021):
pEC50: −log10 of the molar value.

Target: human APJ receptor (Homo sapiens (Human), UniProt P35414)
Experiment: [35S]GTPγS binding assay on membranes from CHO cells stably expressing human APJ receptor
Format: biochemical
Conditions: means of several independent experiments, read-out: Activity hAPJ SPA EC50 IP
Description: The human APJ receptor was cloned by polymerase chain reaction and the gene encoding the receptor was subcloned in pFLAG-CMV™-3 expression vector (Sigma, Saint Louis, Mo. USA) in-house at Amgen. A GTPγS binding assay was performed on membranes prepared from CHO cells stably expressing human APJ receptor. The optimum experimental conditions for the concentrations of GDP, MgCl2, and NaCl in the assay buffer were initially determined. […] Incubation was at RT for 90 min and the microplate was read using a ViewLux™ ultra HTS Microplate Imager (PerkinElmer, Inc.). All the results presented are means of several independent experiments and analyzed by non-linear regression methods using the commercially available program Prism (GraphPad, San Diego, Calif.) providing the EC50 values detailed in Table 28.

Chain of human APJ receptor (P35414 whole entry): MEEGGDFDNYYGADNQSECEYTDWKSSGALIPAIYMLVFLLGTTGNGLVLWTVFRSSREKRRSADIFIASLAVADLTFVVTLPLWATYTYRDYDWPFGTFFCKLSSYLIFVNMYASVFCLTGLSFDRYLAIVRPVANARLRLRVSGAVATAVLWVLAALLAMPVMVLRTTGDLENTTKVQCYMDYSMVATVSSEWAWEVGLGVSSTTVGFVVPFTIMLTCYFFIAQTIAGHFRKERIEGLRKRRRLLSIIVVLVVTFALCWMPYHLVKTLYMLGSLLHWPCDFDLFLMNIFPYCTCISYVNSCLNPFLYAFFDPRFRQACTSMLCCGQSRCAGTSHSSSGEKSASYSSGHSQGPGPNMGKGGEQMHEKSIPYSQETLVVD

| Structure (SMILES) | pEC50 |
| --- | --- |
| COc1ncnc(OC)c1-n1c(NS(=O)(=O)[C@@H](C)[C@H](OC)c2ncc(C)cn2)nnc1-c1cccc(Cl)c1 [Example 3.0, (1R,25)-N-(5-(3-chlorophenyl)-4-(4,6-dimethoxypyrimidin-5-yl)-4H-1,2,4-triazol-3-yl)-1-methoxy-1-(5-methylpyrimidin-2-yl)propane-2-sulfonamide] | 8.28 |
| COc1cccc(-c2nnc(NS(=O)(=O)[C@@H](C)[C@H](OC)c3ncc(Cl)cn3)n2[C@H]2CCCOC2)c1 [Example 119.0] | 7.66 |
| Cc1cnc([C@@H](O)[C@H](C)S(=O)(=O)Nc2nnc(-c3ccccc3)n2-c2c(F)cccc2F)nc1 [Example 45.0] | 7.47 |
| COc1cccc(OC)c1-n1c(NS(=O)(=O)[C@H]2C[C@@H](OC(C)C)CN(c3ncc(F)cn3)C2)nnc1-c1ccccc1 (single isomer, unassigned) [Example 58.0, (3R,5S)-N-(4-(2,6-dimethoxyphenyl)-5-phenyl-4H-1,2,4-triazol-3-yl)-1-(5-fluoro-2-pyrimidinyl)-5-(1-methylethoxy)-3-piperidinesulfonamide or (3S,5R)-N-(4-(2,6-dimethoxyphenyl)-5-phenyl-4H-1,2,4-triazol-3-yl)-1-(5-fluoro-2-pyrimidinyl)-5-(1-methylethoxy)-3-piperidinesulfonamide] | 9.03 |
| COc1ncnc(OC)c1-n1c(NS(=O)(=O)[C@@H](C)Cc2ncc(F)cn2)nnc1-c1ccccc1 (single isomer, unassigned) [Example 11.0, (2S)-N-(4-(4,6-dimethoxy-5-pyrimidinyl)-5-phenyl-4H-1,2,4-triazol-3-yl)-1-(5-fluoro-2-pyrimidinyl)-2-propanesulfonamide or (2R)-N-(4-(4,6-dimethoxy-5-pyrimidinyl)-5-phenyl-4H-1,2,4-triazol-3-yl)-1-(5-fluoro-2-pyrimidinyl)-2-propanesulfonamide] | 8.19 |
| COc1cccc(OC)c1-n1c(NS(=O)(=O)[C@@H](C)[C@H](OC)c2ncc(C)cn2)nnc1-c1ccc2nc(N)sc2c1 [Example 74.0, (1R,2S)-N-(5-(2-amino-1,3-benzothiazol-6-yl)-4-(2,6-dimethoxyphenyl)-4H-1,2,4-triazol-3-yl)-1-methoxy-1-(5-methyl-2-pyrimidinyl)-2-propanesulfonamide] | 6.85 |
| COc1ncnc(OC)c1-n1c(NS(=O)(=O)[C@H]2CCCN(c3ncc(Cl)cn3)C2)nnc1-c1ccccc1 (single isomer, unassigned) [Example 32.0, (3S)-1-(5-chloro-2-pyrimidinyl)-N-(4-(4,6-dimethoxy-5-pyrimidinyl)-5-phenyl-4H-1,2,4-triazol-3-yl)-3-piperidinesulfonamide or (3R)-1-(5-chloro-2-pyrimidinyl)-N-(4-(4,6-dimethoxy-5-pyrimidinyl)-5-phenyl-4H-1,2,4-triazol-3-yl)-3-piperidinesulfonamide] | 7.77 |
| CO[C@H](c1ncc(Cl)cn1)[C@H](C)S(=O)(=O)Nc1nnc(-c2cccc3nn(C)cc23)n1C1CC1 [Example 115.0] | 7.96 |
| COc1cccc(OC)c1-n1c(NS(=O)(=O)[C@@H](C)[C@H](OC)c2ncc(C)cn2)nnc1-c1ccccc1 [Example 77.0, (1R,2S)-N-(4-(2,6-dimethoxyphenyl)-5-phenyl-4H-1,2,4-triazol-3-yl)-1-methoxy-1-(5-methyl-2-pyrimidinyl)-2-propanesulfonamide] | 9.00 |
| COc1ncnc(OC)c1-n1c(NS(=O)(=O)[C@@H](C)[C@H](OC)c2ncc(C)cn2)nnc1-c1cccc(Br)c1 [Example 1.0, (1R,2S)—N-(5-(3-Bromophenyl)-4-(4,6-dimethoxypyrimidin-5-yl)-4H-1,2,4-triazol-3-yl)-1-methoxy-1-(5-methylpyrimidin-2-yl)propane-2-sulfonamide] | 8.38 |
| Cc1cnc([C@@H](C)[C@H](C)S(=O)(=O)Nc2nnc(-c3ccccc3)n2-c2c(F)cccc2F)nc1 [Example 40.0, (2S,3R)-N-(4-(2,6-difluorophenyl)-5-phenyl-4H-1,2,4-triazol-3-yl)-3-(5-methyl-2-pyrimidinyl)-2-butanesulfonamide] | 8.36 |
| CCN(CC)c1ccc(-c2nnc(NS(=O)(=O)[C@@H](C)[C@H](OC)c3ncc(C)cn3)n2-c2c(OC)cccc2OC)cc1 [Example 83.0, (1R,2S)-N-(5-(4-(diethylamino)phenyl)-4-(2,6-dimethoxyphenyl)-4H-1,2,4-triazol-3-yl)-1-methoxy-1-(5-methyl-2-pyrimidinyl)-2-propanesulfonamide] | 7.05 |
| COc1ncnc(OC)c1-n1c(NS(=O)(=O)[C@@H](C)[C@@H](OC(C)C)c2ncc(C)cn2)nnc1-c1ccccc1 [Example 14.0, (1S,2S)-N-(4-(4,6-dimethoxy-5-pyrimidinyl)-5-phenyl-4H-1,2,4-triazol-3-yl)-1-(1-methylethoxy)-1-(5-methyl-2-pyrimidinyl)-2-propanesulfonamide] | 9.26 |
| COc1cccc(-c2nnc(NS(=O)(=O)[C@@H](C)[C@H](OC)c3ncc(C)cn3)n2-c2c(OC)ncnc2OC)c1 [Example 6.0, (1R,2S)-N-(4-(4,6-dimethoxy-5-pyrimidinyl)-5-(3-methoxyphenyl)-4H-1,2,4-triazol-3-yl)-1-methoxy-1-(5-methyl-2-pyrimidinyl)-2-propanesulfonamide] | 8.17 |
| COc1cccc(OC)c1-n1c(NS(=O)(=O)[C@H]2CCCN(c3ncc(F)cn3)C2)nnc1-c1ccccc1 (single isomer, unassigned) [Example 21.0, (3S)—N-(4-(2,6-Dimethoxyphenyl)-5-phenyl-4H-1,2,4-triazol-3-yl)-1-(5-fluoro-2-pyrimidinyl)-3-piperidinesulfonamide or (3R)—N-(4-(2,6-dimethoxyphenyl)-5-phenyl-4H-1,2,4-triazol-3-yl)-1-(5-fluoro-2-pyrimidinyl)-3-piperidinesulfonamide] | 8.14 |
| COc1cccc(OC)c1-n1c(NS(=O)(=O)[C@@H](C)[C@H](OC)c2ncc(C)cn2)nnc1-c1cc(C(F)(F)F)cc(C(F)(F)F)c1 [Example 68.0, (1R,2S)-N-(5-(3,5-bis(trifluoromethyl)phenyl)-4-(2,6-dimethoxyphenyl)-4H-1,2,4-triazol-3-yl)-1-methoxy-1-(5-methyl-2-pyrimidinyl)-2-propanesulfonamide] | 8.33 |
| COc1cccc(OC)c1-n1c(NS(=O)(=O)CCc2ccc(F)cc2C#N)nnc1-c1ccccc1 [Example 12.0, 2-(2-cyano-4-fluorophenyl)-N-(4-(2,6-dimethoxyphenyl)-5-phenyl-4H-1,2,4-triazol-3-yl)ethanesulfonamide] | 8.07 |
| COc1cccc(OC)c1-n1c(NS(=O)(=O)[C@@H](C)[C@H](OC)c2ncc(C)cn2)nnc1-c1ccc2c(c1)OC(F)(F)O2 [Example 39.0, (1R,2S)-N-(5-(2,2-difluoro-1,3-benzodioxol-5-yl)-4-(2,6-dimethoxyphenyl)-4H-1,2,4-triazol-3-yl)-1-methoxy-1-(5-methyl-2-pyrimidinyl)-2-propanesulfonamide] | 6.80 |
| CO[C@H](c1ncc(Cl)cn1)[C@H](C)S(=O)(=O)Nc1nnc(-c2cccc3nn(C)cc23)n1C(C)C [Example 116.0] | 6.66 |
| COc1ncnc(OC)c1-n1c(NS(=O)(=O)[C@H]2CCCN(c3ncc(F)cn3)C2)nnc1-c1ccccc1 (single isomer, unassigned) [Example 27.0, (3S)-N-(4-(4,6-dimethoxy-5-pyrimidinyl)-5-phenyl-4H-1,2,4-triazol-3-yl)-1-(5-fluoro-2-pyrimidinyl)-3-piperidinesulfonamide or (3R)-N-(4-(4,6-dimethoxy-5-pyrimidinyl)-5-phenyl-4H-1,2,4-triazol-3-yl)-1-(5-fluoro-2-pyrimidinyl)-3-piperidinesulfonamide] | 7.49 |
| COc1cccc(OC)c1-n1c(NS(=O)(=O)[C@@H](C)[C@H](OC)c2ncc(C)cn2)nnc1-c1cccc2cn(C)nc12 [Example 92.0] | 7.22 |
| COc1cccc(OC)c1-n1c(NS(=O)(=O)[C@@H](C)[C@H](OC)c2ncc(C)cn2)nnc1-c1ccc(Cl)cc1Cl [Example 71.0, (1R,2S)-N-(5-(2,4-dichlorophenyl)-4-(2,6-dimethoxyphenyl)-4H-1,2,4-triazol-3-yl)-1-methoxy-1-(5-methyl-2-pyrimidinyl)-2-propanesulfonamide] | 6.80 |
| Cc1cnc([C@@H](O[Si](C)(C)C(C)(C)C)[C@H](C)S(=O)(=O)Nc2nnc(-c3ccccc3)n2-c2c(F)cccc2F)nc1 [Example 44.0, (1R,2S)-1-((tert-butyl(dimethyl)silyl)oxy)-N-(4-(2,6-difluorophenyl)-5-phenyl-4H-1,2,4-triazol-3-yl)-1-(5-methyl-2-pyrimidinyl)-2-propanesulfonamide] | 6.82 |
| COc1ncnc(OC)c1-n1c(NS(=O)(=O)[C@H]2CCCN(c3ncc(C)cn3)C2)nnc1-c1ccccc1 (single isomer, unassigned) [Example 29.0, (S)—N-(4-(4,6-Dimethoxypyrimidin-5-yl)-5-phenyl-4H-1,2,4-triazol-3-yl)-1-(5-methylpyrimidin-2-yl)piperidine-3-sulfonamide or (R)—N-(4-(4,6-dimethoxypyrimidin-5-yl)-5-phenyl-4H-1,2,4-triazol-3-yl)-1-(5-methylpyrimidin-2-yl)piperidine-3-sulfonamide] | 6.41 |
| COc1cccc(OC)c1-n1c(NS(=O)(=O)[C@@H](C)[C@H](O)c2ncc(C)cn2)nnc1-c1ccccc1 [Example 18.0, (1R,2S)-N-(4-(2,6-dimethoxyphenyl)-5-phenyl-4H-1,2,4-triazol-3-yl)-1-hydroxy-1-(5-methyl-2-pyrimidinyl)-2-propanesulfonamide] | 9.09 |
| COc1ncnc(OC)c1-n1c(NS(=O)(=O)[C@@H](C)[C@H](O)c2ncc(C)cn2)nnc1-c1ccccc1 [Example 20.0, (1R,2S)-N-(4-(4,6-dimethoxy-5-pyrimidinyl)-5-phenyl-4H-1,2,4-triazol-3-yl)-1-hydroxy-1-(5-methyl-2-pyrimidinyl)-2-propanesulfonamide] | 8.28 |
